According to PubChem BioAssay (NCI):
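Values below derive from 48-hour exposures of cells grown in 96-well plates, with endpoints linearly interpolated between the two concentrations bracketing the appropriate inhibition level. GI50: concentration for 50% inhibition of growth. TGI: concentration producing complete growth inhibition.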

What was measured:
Experiment in all cases: inhibition of tumour cell growth, NCI panel, 48 h
SF-268 CNS = tested on: SF-268 CNS
A549 NSCLC = tested on: A549 NSCLC
HT29 colon = tested on: HT29 colon
OVCAR-8 ovarian = tested on: OVCAR-8 ovarian
MCF7 breast = tested on: MCF7 breast
DU-145 prostate = tested on: DU-145 prostate
HOP-92 NSCLC = tested on: HOP-92 NSCLC
K-562 leukemia = tested on: K-562 leukemia
786-0 renal = tested on: 786-0 renal
OVCAR-5 ovarian = tested on: OVCAR-5 ovarian
NCI-H23 lung = tested on: NCI-H23 lung
NCI/ADR-RES ovarian = tested on: NCI/ADR-RES ovarian
TK-10 renal = tested on: TK-10 renal
BT-549 breast = tested on: BT-549 breast
M14 melanoma = tested on: M14 melanoma
UACC-257 melanoma = tested on: UACC-257 melanoma
T-47D breast = tested on: T-47D breast
SK-MEL-2 melanoma = tested on: SK-MEL-2 melanoma
NCI-H460 lung = tested on: NCI-H460 lung
OVCAR-3 ovarian = tested on: OVCAR-3 ovarian
SK-MEL-28 melanoma = tested on: SK-MEL-28 melanoma
SK-OV-3 ovarian = tested on: SK-OV-3 ovarian
KM12 colon = tested on: KM12 colon
MALME-3M melanoma = tested on: MALME-3M melanoma
SF-539 CNS = tested on: SF-539 CNS
HCC-2998 colon = tested on: HCC-2998 colon
EKVX NSCLC = tested on: EKVX NSCLC
MDA-MB-231 breast = tested on: MDA-MB-231 breast

COc1ccc(/C=C2/CCc3cc4ccc(OC)cc4[o+]c32)c(O)c1
GI50 (SF-268 CNS): 2.8 µM
TGI (SF-268 CNS): 9.83 µM
GI50 (A549 NSCLC): 18.5 µM
TGI (A549 NSCLC): 41.6 µM
GI50 (HT29 colon): 2.12 µM
TGI (HT29 colon): 4.67 µM
GI50 (OVCAR-8 ovarian): 2.27 µM
TGI (OVCAR-8 ovarian): 6.13 µM
GI50 (MCF7 breast): 4.31 µM
TGI (MCF7 breast): 22 µM
GI50 (DU-145 prostate): 8.15 µM
TGI (DU-145 prostate): 20.5 µM
GI50 (HOP-92 NSCLC): 11.7 µM
TGI (HOP-92 NSCLC): 29.1 µM
GI50 (K-562 leukemia): 11.4 µM
TGI (K-562 leukemia): 93.8 µM
GI50 (786-0 renal): 3.97 µM
TGI (786-0 renal): 19.8 µM
GI50 (OVCAR-5 ovarian): 17.2 µM
TGI (OVCAR-5 ovarian): 40.3 µM
GI50 (NCI-H23 lung): 10.4 µM
TGI (NCI-H23 lung): 30.1 µM
GI50 (NCI/ADR-RES ovarian): 4.16 µM
TGI (NCI/ADR-RES ovarian): 50.6 µM
GI50 (TK-10 renal): 11.7 µM
TGI (TK-10 renal): 24.6 µM
GI50 (BT-549 breast): 12.1 µM
TGI (BT-549 breast): 31.7 µM
GI50 (M14 melanoma): 3.1 µM
TGI (M14 melanoma): 14.6 µM
GI50 (UACC-257 melanoma): 15.8 µM
TGI (UACC-257 melanoma): 32 µM
GI50 (T-47D breast): 3.04 µM
TGI (T-47D breast): 22.1 µM
GI50 (SK-MEL-2 melanoma): 11.8 µM
TGI (SK-MEL-2 melanoma): 25.3 µM
GI50 (NCI-H460 lung): 2.8 µM
TGI (NCI-H460 lung): 9.74 µM
GI50 (OVCAR-3 ovarian): 2.48 µM
TGI (OVCAR-3 ovarian): 6.09 µM
GI50 (SK-MEL-28 melanoma): 2.3 µM
TGI (SK-MEL-28 melanoma): 5.62 µM
GI50 (SK-OV-3 ovarian): 12.3 µM
TGI (SK-OV-3 ovarian): 25.3 µM
GI50 (KM12 colon): 2.65 µM
TGI (KM12 colon): 7.44 µM
GI50 (MALME-3M melanoma): 3.08 µM
TGI (MALME-3M melanoma): 11.7 µM
GI50 (SF-539 CNS): 15.1 µM
TGI (SF-539 CNS): 31.8 µM
GI50 (HCC-2998 colon): 15.3 µM
TGI (HCC-2998 colon): 32.6 µM
GI50 (EKVX NSCLC): 12.5 µM
TGI (EKVX NSCLC): 26.8 µM
GI50 (MDA-MB-231 breast): 3.75 µM
TGI (MDA-MB-231 breast): 18.8 µM
